Results from patent US20260000597A1 (priority 2018, published 2026).
Read-outs that look alike come from different tables or passages of the source. Non-standard residues stand in square brackets, D forms with d. Residues, ends and D or L forms follow the SMILES beside them. No end group written: not given here. *: point of attachment. Palmitoyl = CCCCCCCCCCCCCCCC(=O)*; Dab = NCC[C@H](N)C(=O)O; NHBn = c1ccc(CN*)cc1; βAla = NCCC(=O)O

Legend:
TE671 cells = test system: TE671 cells
Description: To evaluate the toxicity of Spep-1 and Spep-2, WST Assay was performed on TE671 cells.

[1] = target: Acetylcholine receptor proteins (AchR) (Homo sapiens, UniProt P02708); assay type: binding; conditions: for AchR binding affinity / AchR binding affinity compared with Spep-2 / AchR binding affinity (resonance units: Ru) among representative peptides: SPR; for AchR binding affinity: 10 μM peptides, compared with Synake; for AchR binding affinity (resonance units: Ru) among representative peptides: peptides 3 μM
Description: Spep-1 to Spep-11 selected in Example 1 were synthesized, and the AchR binding affinity was compared thereamong using a surface plasmon resonance (SPR) analyzer (Biacore3000, Biacore A, Sweden). […]
The treatment concentrations of Spep-2 were 0.12 to 1 μM, and the dissociation constant was compared while Synake was used as a positive control.

AchR [2] = target: T1, AchR (Homo sapiens, UniProt P02708); test: ELISA of screened peptide phages on AchR versus streptavidin (OD450); assay type: binding; conditions: absorbance at 450 nm
Procedure, shortened: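 Reported as the ratio of AchR to streptavidin OD450, with TMB read-out after HRP anti-M13 detection. Wells coated with 5 μg/ml target overnight at 4 °C and BSA-blocked, then incubated 1 h at 30 °C with helper-rescued phage from individual plaques.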
Target sequence in this assay (P02708 21-457): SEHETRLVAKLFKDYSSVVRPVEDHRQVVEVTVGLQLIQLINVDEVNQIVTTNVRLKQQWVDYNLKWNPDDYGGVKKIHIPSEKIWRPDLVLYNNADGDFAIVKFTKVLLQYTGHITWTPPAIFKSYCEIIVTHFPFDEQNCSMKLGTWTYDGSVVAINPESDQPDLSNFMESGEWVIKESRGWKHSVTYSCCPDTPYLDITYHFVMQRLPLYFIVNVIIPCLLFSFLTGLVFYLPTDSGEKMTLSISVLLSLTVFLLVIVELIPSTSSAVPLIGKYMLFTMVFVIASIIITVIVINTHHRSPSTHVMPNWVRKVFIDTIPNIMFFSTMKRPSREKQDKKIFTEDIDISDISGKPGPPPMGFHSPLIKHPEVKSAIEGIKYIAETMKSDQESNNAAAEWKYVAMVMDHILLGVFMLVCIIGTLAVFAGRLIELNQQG

AchR [3] = target: T1, AchR; test: cell-based; assay type: cell-based; parameters: endogenous in cells; host or cells: TE671; conditions: for AchR inhibitory effect: acetylcholine treatment
Target sequence in this assay (P02708 21-457): as above
Target sequence in this assay (Q07001 22-517, further chain): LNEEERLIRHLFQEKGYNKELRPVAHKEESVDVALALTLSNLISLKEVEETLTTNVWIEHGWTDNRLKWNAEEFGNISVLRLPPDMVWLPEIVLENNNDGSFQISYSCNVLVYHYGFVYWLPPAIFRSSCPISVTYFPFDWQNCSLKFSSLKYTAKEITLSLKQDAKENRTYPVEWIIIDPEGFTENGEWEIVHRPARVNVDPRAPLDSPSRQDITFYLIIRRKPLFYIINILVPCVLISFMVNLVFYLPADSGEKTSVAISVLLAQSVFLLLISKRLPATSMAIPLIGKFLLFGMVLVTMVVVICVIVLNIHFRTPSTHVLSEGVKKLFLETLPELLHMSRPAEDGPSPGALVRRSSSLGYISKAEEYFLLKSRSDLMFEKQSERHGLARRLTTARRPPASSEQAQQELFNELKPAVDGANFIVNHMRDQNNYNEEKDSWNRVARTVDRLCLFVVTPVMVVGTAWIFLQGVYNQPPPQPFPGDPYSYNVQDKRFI
Target sequence in this assay (P07510 23-517, further chain): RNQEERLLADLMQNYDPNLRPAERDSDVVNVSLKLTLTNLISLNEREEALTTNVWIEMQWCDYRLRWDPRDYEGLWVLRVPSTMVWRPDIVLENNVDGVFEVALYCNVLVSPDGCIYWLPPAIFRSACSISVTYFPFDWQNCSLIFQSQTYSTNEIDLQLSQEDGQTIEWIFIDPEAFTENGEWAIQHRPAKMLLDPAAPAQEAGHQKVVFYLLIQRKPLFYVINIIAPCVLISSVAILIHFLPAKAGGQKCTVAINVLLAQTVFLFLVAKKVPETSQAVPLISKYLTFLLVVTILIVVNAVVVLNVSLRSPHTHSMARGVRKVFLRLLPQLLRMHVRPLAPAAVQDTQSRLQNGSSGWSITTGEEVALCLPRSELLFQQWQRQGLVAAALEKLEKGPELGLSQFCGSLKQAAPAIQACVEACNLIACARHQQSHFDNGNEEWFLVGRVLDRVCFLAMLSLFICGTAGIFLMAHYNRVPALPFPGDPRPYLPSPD
Target sequence in this assay (P11230 24-501, further chain): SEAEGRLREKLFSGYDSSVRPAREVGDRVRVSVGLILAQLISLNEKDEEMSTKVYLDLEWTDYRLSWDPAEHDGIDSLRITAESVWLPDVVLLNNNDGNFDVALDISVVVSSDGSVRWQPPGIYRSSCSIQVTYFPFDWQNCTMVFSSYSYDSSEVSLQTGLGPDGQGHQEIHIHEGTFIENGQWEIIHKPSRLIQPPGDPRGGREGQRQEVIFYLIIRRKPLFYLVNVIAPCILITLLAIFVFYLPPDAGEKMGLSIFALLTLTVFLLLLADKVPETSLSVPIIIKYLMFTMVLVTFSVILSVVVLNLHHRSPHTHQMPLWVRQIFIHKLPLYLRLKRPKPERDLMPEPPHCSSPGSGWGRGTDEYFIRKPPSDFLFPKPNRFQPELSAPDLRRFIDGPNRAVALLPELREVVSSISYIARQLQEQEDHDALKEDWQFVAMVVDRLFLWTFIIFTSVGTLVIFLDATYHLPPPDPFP

BALB/c mice = assay type: in vivo
Description: Specifically, the DAS values for Palmitoyl-L3-37 in Example 18 were evaluated. […]; and a group treated with a saline solution (sterilized 0.9% NaCl) or 70 μg/kg bungarotoxin as a control group. Then, palmitoyl-L3-37 and the saline solution or bungarotoxin at the concentrations as above were injected each 50 μl into the hind thigh muscles of mice. Thereafter, the mice weight and the sole of the injected portion were observed and recorded every day, and the results are shown in FIGS. 37 to 39.

[4] = ELISA of selected 11-mer (L2) peptide phages on AchR, Spep-2 positive control
[5] = ELISA of selected 14-mer (L3) peptide phages on AchR, Spep-2 positive control
[6] = phage ELISA, 5 μg/ml AchR, 4th and 5th round biopanning phages

Sequence of Acetylcholine receptor proteins (AchR) (P02708 21-457): as the sequence (P02708 21-457) above

CCCCCCCCCCCCCCCC(=O)N[C@@H](Cc1c[nH]c2ccccc12)C(=O)N[C@H](C(=O)N[C@@H](Cc1c[nH]c2ccccc12)C(=O)N[C@@H](CCCCN)C(=O)NCC(=O)N[C@@H](CCCNC(=N)N)C(=O)N[C@@H](CCCCN)C(=O)N[C@@H](CO)C(=O)N[C@@H](CC(C)C)C(=O)N[C@@H](CC(C)C)C(=O)N[C@@H](CCCNC(=N)N)C(=O)O)[C@@H](C)O [Palmitoyl-Spep-2] (Palmitoyl-WTWKGRKSLLR-OH)
cytotoxicity (WST assay) (TE671 cells): no cytotoxicity

WTWKGRKSLLR [Spep-2, WTWKGRKSLLR]
toxicity (WST assay) (TE671 cells): no toxicity | AchR binding affinity [1]: high AchR binding affinity compared with Synake | AchR binding affinity superior to that of Synake ([1]; from Kd values): about 2,000 times | OD (AchR [2]; [4]): 0.303 | OD (AchR [2]; [5]): 0.303 | OD (AchR [2]; [6]): 0.303 | IC50 (AchR [3]): 0.75 µM | AchR inhibitory effect (AchR [3]; peptide 0.5 μM, TE671 cells): 90% | AchR inhibitory effect (AchR [3]; peptide 5 μM, TE671 cells): 100% | AchR inhibitory rate (AchR [3]; nicotine 400 μM, peptide 20 μM, TE671 cells): about 10% | AchR inhibition (AchR [3]; nicotine 400 μM, peptide 70 μM): could not inhibit | AchR inhibition (AchR [3]; nicotine 400 μM, peptide 80 μM): 100% | nicotinic acetylcholine receptor inhibitory effects (AchR [3]; nicotine treatment, compared with Synake, TE671 cells): excellent nicotinic acetylcholine receptor inhibitory effects

WTWKGKGTLNR [Spep-1, WTWKGKGTLNR]
toxicity (WST assay) (TE671 cells): no toxicity

WTWKGNKQVKF [Spep-10]
AchR binding affinity [1]: high AchR binding affinity compared with Synake

GRKSLLR [Spep-2-ND4]
AchR binding affinity compared with Spep-2 [1]: significantly reduced binding affinity

WTWKGRDKLQM [Spep-4]
AchR binding affinity [1]: high AchR binding affinity compared with Synake

L3-28: 14-mer optimized peptide of the L3 library (Table 12, not shown here) (PNGKVRKRIRRRYF; AchR binding peptide) [Peptide L3-28]
AchR binding affinity (resonance units: Ru) among representative peptides [1]: highest binding affinity | OD (AchR [2]; [5]): 0.803 | AchR inhibition (AchR [3]; nicotine 400 μM, peptide 2.5 μM): could not inhibit

NCCC(=O)N1CCC[C@H]1C(=O)N[C@@H](CCN)C(=O)NCc1ccccc1 [Synake, reference compound] (H-[βAla]-Pro-[Dab]-NHBn; N-terminus and C-terminus assumed)
toxicity (WST assay) (TE671 cells; TE671 cells, treatment concentration of 100 μM): no toxicity

RKSLLR [Spep-2-ND5, RKSLLR]
binding affinity reduced compared with Spep-2 (11-mer) [1]: 48 times | AchR binding affinity compared with Spep-2 [1]: significantly reduced binding affinity

L3-37: 14-mer optimized peptide of the L3 library (Table 12, not shown here) (SNVKRKRGRCKPYR; AchR binding peptide) [Peptide L3-37]
AchR binding affinity (resonance units: Ru) among representative peptides [1]: highest binding affinity | OD (AchR [2]; [5]): 0.69

L2-110: 11-mer optimized peptide of the L2 library (Table 11, not shown here) (RYAKHRKRQTR; AchR binding peptide) [Peptide L2-110]
AchR binding affinity (resonance units: Ru) among representative peptides [1]: higher binding affinity to AchR compared with the 8-mer L1-13 | OD (AchR [2]; [4]): 0.831 | AchR inhibition (AchR [3]; nicotine 400 μM, peptide 5 μM): could not inhibit

CCCCCCCCCCCCCCCC(=O)N[C@@H](CO)C(=O)N[C@@H](CC(N)=O)C(=O)N[C@H](C(=O)N[C@@H](CCCCN)C(=O)N[C@@H](CCCNC(=N)N)C(=O)N[C@@H](CCCCN)C(=O)N[C@@H](CCCNC(=N)N)C(=O)NCC(=O)N[C@@H](CCCNC(=N)N)C(=O)N[C@@H](CS)C(=O)N[C@@H](CCCCN)C(=O)N1CCC[C@H]1C(=O)N[C@@H](Cc1ccc(O)cc1)C(=O)N[C@@H](CCCNC(=N)N)C(=O)O)C(C)C [Palmitoyl-L3-37] (Palmitoyl-SNVKRKRGRCKPYR-OH)
weight of mice (BALB/c mice; all groups, 7 days after administration): gradually increased | acute toxicity (BALB/c mice; up to 25 mg/kg IM, 7 days): no toxicity was observed

L3-27: 14-mer optimized peptide of the L3 library (Table 12, not shown here) (RARKKRKSLLRRQV; AchR binding peptide) [Peptide L3-27]
AchR binding affinity (resonance units: Ru) among representative peptides [1]: highest binding affinity | OD (AchR [2]; [5]): 0.83 | AchR inhibition (AchR [3]; nicotine 400 μM, peptide 1 μM): 50% | AchR inhibition (AchR [3]; nicotine 400 μM, peptide 5 μM): could not inhibit

L3-84 (HTFKLRKLCQKLFE; AchR binding peptide) [Peptide L3-84]
OD (AchR [2]; [5]): 0.739

RPKRSPSK [Peptide L1-117]
OD (AchR [2]; [6]): 0.508
